From patent publication US20180284123A1, “BARCODED RAPID ASSAY PLATFORM USEFUL FOR EFFICIENT ANALYSIS OF CANDIDATE MOLECULES AND METHODS OF MAKING AND USING THE PLATFORM” (California Institute of Technology, priority 2017, published 2018)
Numbered stars: 1 amine (or outer) side, 2 acyl side, 3 side chain; on linkers, the order of the positions; unused ones are H or OH. Bridge positions count the residues as written; N and C are the ends. Square brackets hold non-standard residues; d marks the D form. Triazole bridges read from a SMILES are 1,4-linked. Peptide text beside a SMILES is read from it. * marks the point of attachment. ξ: configuration not given here. Biotin = O=C1N[C@H]2[C@H](CS[C@H]2CCCCC(=O)*)N1; Lys(N3) = [N-]=[N+]=NCCCC[C@H](N)C(=O)O; ξLys(N3) = [N-]=[N+]=NCCCCC(N)C(=O)O; Ethylenediamine = C(CN[*:2])N[*:1]; PEG5 = NCCOCCOCCOCCOCCOCCC(=O)O; Pra = C#CC[C@H](N)C(=O)O

Tests used:
[1] = biological target: T1, KRAS (Homo sapiens, UniProt P01116); experiment: GTPase Glo assay of intrinsic KRas GTPase activity; format: biochemical
T1 construct: His6-tagged human KRas Isoform 4B (residues 1-169); His6; made in house; host or cells: E. coli BL21(DE3), PQE80 vector
T1 sequence (P01116 1-169 isoform P01116-2): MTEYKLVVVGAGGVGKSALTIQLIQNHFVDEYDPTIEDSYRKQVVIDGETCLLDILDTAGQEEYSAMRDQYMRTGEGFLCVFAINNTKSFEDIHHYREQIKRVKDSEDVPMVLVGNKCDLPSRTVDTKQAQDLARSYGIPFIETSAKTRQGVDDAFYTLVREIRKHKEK
Protocol: The intrinsic GTPase activity of WT KRas protein was measured using the GTPase-Glo Assay Kit (#V7681) from Promega Corporation (Madison, Wis.) on opaque white 96-well plates (#6005290) from Perkin Elmer Life Sciences (Waltham, Mass.). Luminescence was recorded on the Flexstation 3 plate reader used for multi-well ELISAs.
KRas inhibition assays were carried out using a GTPase Glo Assay kit from Promega. Each candidate inhibitor PCC was initially tested by combining a concentration series of the ligand with 10 μM KRas protein in an opaque white 96-well plate and incubated with 5 μM 5′-guanosine triphosphate (GTP) for two hours. The remaining GTP was […]. Chemiluminescence was measured using a Flexstation 3 plate reader (All wavelengths mode, 500 ms integration), and plotted using Graphpad Prism 7. […] All measurements were done in triplicate.
The GTPase assays were run in triplicate on a multi-well plate using the GTPase Glo Assay kit from Promega with 10 μM KRas protein and varying concentrations of ligand (1 μM to 100 μM L1a, L8 and 2.5 μM to 250 μM L2). All reagents were warmed to RT before use. A single opaque white 96-well plate was charged with 12.5 μL GTPase/GAP buffer (GTPase buffer w/ 1 mM DTT), 10 μM KRas in GTPase/GAP buffer, or 10 μM KRas protein with either L1a, L2, or L8. Running the survey assays on the same plate allowed for direct comparison of the curves, but it necessitated the use of the first row/column on the multi-well plate which introduced some noise to the low ligand concentration points. A 12.5 μL aliquot of a 2×GTP solution (10 μM rGTP in GTPase Buffer) was then added to each well before allowing the plate to shake at RT for two hours (initial GTPase inhibition assay). The GTPase Glo reagent was reconstituted in the GTPase Glo Buffer (4 μL GTPase Glo (500×) reagent, 1996 μL GTPase Glo Buffer, 1 μL 10 mM ADP) immediately before adding 25 μL to each well. Shaking at RT for thirty minutes preceded the addition of 50 μL of the Detection reagent to each well. The plate was covered and incubated for a total of ten minutes before reading the luminescence with a Flexstation 3 plate reader (All wavelengths mode, 500 ms integration time), graphed using Graphpad Prism 7 (Sigmoidal 4PL mode), and an IC50 value was calculated.
For the full GTPase inhibition curve for L2, the above procedure was followed with the change that the incubation with KRas occurred over or four hours rather than two.
Consequently, the best three ligand fractions L1a, L2, and L8 were probed in a functional, solution phase assay for their ability to disrupt the intrinsic GTPase enzymatic activity of KRas protein. This assay measures the enzymatic conversion of GTP to GDP by KRas—a process that can potentially be inhibited. After incubation, an added GTPase Glo™ reagent converts the remaining GTP to ATP, and the ATP is converted into a chemiluminescent signal. Thus, higher chemiluminescence translates to lower KRas enzymatic activity. For the measurements, a fixed [KRas protein] is incubated with varying ligand concentrations. A concentration of 10 μM KRas protein was selected after generating a standard curve for the intrinsic KRas GTPase activity. KRas is a slow acting enzyme, so a KRas/PCC incubation time of two hours was used for the initial survey scans, while four hour incubation times were used for the higher resolution data. […] Thus, the modulation of KRas activity by L2 was recorded with an expanded concentration range.

[2] = biological target: T1, KRAS; experiment: B-RAP surface immunofluorescent assay, PCC ligand KRas EC50; format: binding; conditions: for Avg F635, Full Centroid / Avg F635, Full Lane / avg F635, Left Part Centroid / avg F635, Middle Part Centroid / avg F635, Right Part Centroid: 10 μM KRas well of plate #1, pixel by pixel; for avg F635, Left Part Centroid: left part of centroid; for avg F635, Middle Part Centroid: middle part of centroid; for avg F635, Right Part Centroid: right part of centroid
Protocol: The barcode patterned microchip surface was partitioned into 16 individual microwells using a pre-fabricated PDMS slab. Individual biotinylated PCC candidates were complexed to specific SAC-DNA conjugates, combined into a cocktail, and then self-assembled, via DNA hybridization, onto designated barcode stripes (FIGS. 2-4). Incubation with a specific concentration of the target protein preceded incubation with a primary capture antibody and then a fluorophore-conjugated secondary detection antibody. During assay execution, each well represents a different target concentration or assay condition. Once developed, the fluorescence of the barcodes is digitized using a GenePix 4400A array scanner, with an excitation laser power optimized to a power level of 40% (60 W), which maximizes detection sensitivity while also minimizing signal saturation. Data extraction occurs using 10 μm radius circles, taken along the length of a barcode stripe. A fluorescence signal representing the average of all the pixels within a given circle is collected. A total of ten circles (data-blocks) are measured along a 180 μm span of the middle portion for each individual barcode lane in a given well. 10 μM KRas protein gave an average F635 of 47,868.7, with a standard deviation of 4154.53. 1 μM KRas protein gave an average F635 of 11437.6, with a standard deviation of 1602.202. 100 nM KRas protein gave an average F635 of 1780.6, with a standard deviation of 236.38. This illustrates the intensity across a stripe compared to the intensity from the data-block extraction. After extraction the data is background corrected. The background signal arises from (a) non-specific binding of the primary and secondary antibodies (independent of [KRas]), but can vary across different barcode stripes), and (b) non-specific binding of KRas protein ([KRas] dependent). Background (a) was assessed by measuring the average signal in the null protein well for each stripe. Background (b) was assessed by measuring the average fluorescence for the dummy ligand (Biotin* probe) that was in each well. The background subtracted data was then graphed in Graphpad Prism 7 and fitted to a sigmoidal curve (Hill coefficient=1).
Measurement of PCC Ligand KRas EC50 with the Barcode Rapid Assay Platform
Protein Incubation Buffer: Tris-buffered saline (TBS)+0.05% Tween20 (TBST)
A pre-fabricated PDMS template was aligned onto the DNA barcode microchip, and the microchip was taped into a 10 cm petri dish. The wells on the platform were wet with 50 μL PBST before filling with blocking buffer and placing into a 37° C. incubator for 1 hr. Concurrently, 40 μL 1% BSA in PBS solutions containing 750 nM of a SAC-DNA conjugate and 3.75 μM of one biotinylated PCC ligand or biotin-A20-Cy3 blank were prepared for each SAC-DNA conjugate. The biotinylated ligands were allowed to complex with the SAC protein for one hour before pooling the SAC-DNA-ligand solutions (final [SAC-DNA-ligand conjugates]=50 nM). The blocking buffer was aspirated and each well was loaded with the SAC-DNA-ligand conjugates cocktail for hybridization with the DNA barcode at 37° C. for one hour. The wells were washed with PBST (3×) before loading serially diluted solutions of KRas protein in protein buffer (0 to 400 μM). After shaking at RT for one hour, the wells were rinsed with PBST (5×), making sure to pipet up/down with the first addition of PB ST. A (100:1) dilution of CST rabbit anti-Ras Ab (#39655) in 1° ab buffer was added to each well before shaking at RT for one hour. After rinsing the wells with PBST (3×), the wells were loaded with a (200:1) dilution of Abcam goat anti-rabbit-Alexafluor 647 linked ab (ab150079) in 2° ab buffer before shaking at RT for one hour. A final rinse of the wells with PBST (3×) proceeded peeling off the PDMS slab from the barcode microchip and dipping the barcode into the following solutions: PBS, (1:1) PBS: MQ H2O, MQ H2O (2×). […]

[3] = biological target: T1, KRAS; experiment: Multi-well ELISA, PCC ligand KRas EC50; format: binding; conditions: triplicate, KRas 0→300 μM, Hill coefficient=1
Protocol: Measurement of PCC Ligand KRas EC50 Using the Multi-Well ELISA Technology
A 96-well Pierce Neutravidin Plate was washed with binding buffer (3×5 minutes at RT) before loading plate with a 1 μM solution of either blank (biotin-PEG5-NHAc) (singly) or biotinylated PCC ligand (in triplicate). The plate incubated for two hours before washing with binding buffer (3×5 minutes). Blocking buffer was added to each well and the plate blocked for one hour before undergoing washing with binding buffer (3×5 minutes). Each well was loaded with either binding buffer or KRas solution (0→300 μM), and the plate was incubated for 30 minutes. Plate washing with binding buffer (3×5 minutes) preceded incubating the plate with a (1000:1) dilution of 1° antibody (ab) rabbit anti-Ras (CST #3965) in ab buffer for thirty minutes. The plate was washed with binding buffer (3×5 minutes), loaded with a (2000:1) dilution of 2° ab goat anti-rabbit, HRP-linked ab (CST #7074) in ab buffer, and incubated for an additional thirty minutes. […] After quenching the enzymatic reaction with 1M H2SO4(aq) (100 μL) the plate was read at λ=450 nm within ten minutes. The data was double background corrected using the ab only absorbance and the dummy ligand absorbance, plotted using Prism GraphPad 7 (Sigmoidal 4PL mode with the Hill coefficient set=1), and an EC50 value was calculated.

[4] = biological target: T1, KRAS; experiment: Barcoded rapid assay microchip binding curves of FIG. 6A/6B; conditions: fitted curves of FIG. 6B, Hill coefficient set to 1, triplicate
Protocol: FIG. 6A is a picture of a barcoded rapid assay microchip (60) following its use for binding curve assays of KRAS to candidate ligands. […] EC50 binding curves of 15 candidate ligands were simultaneously generated against the target protein KRAS. Each microwell (ovals) represents a distinct concentration of KRAS that was added (values are given above each well). All 15 candidate ligands were measured in triplicate in each microwell.
FIG. 6B is a graph of the EC50 binding curves generated from the barcoded rapid assay microchip of FIG. 6A. Images of the barcoded rapid assay microchip were digitized using a fluorescence image scanner and plotted as binding curves (61) for each of the candidate ligands. All binding curves were fitted to Hill functions, with the Hill coefficient set to 1.
A series of peptide ligands that were identified as candidate binders to the protein KRas, using known literature methods, were prepared according to the methods of FIG. 3, and assembled into the individual microwells of the barcoded rapid assay microchip as illustrated in FIG. 4. […] Fluorescence imaging of the individual wells was then used to generate a fluorescence intensity, vs KRAS concentration, for each of the individual candidate ligands. […]

[5] = survey assays, 10 μM KRas, two hour incubation

Row | effect on the KRas protein's GTPase activity [1, 5] | Avg F635, Full Centroid [2] | Avg F635, Full Lane [2] | avg F635, Left Part Centroid [2] | avg F635, Middle Part Centroid [2] | avg F635, Right Part Centroid [2] | EC50 [3] [nM] | EC50 ([2]; 13-point KRas concentration series, each point in decaplicate, Hill coefficient=1) [µM] | EC50 [4] [µM] | concentration above which ligand switches from weakly activating to strongly inhibiting ([1]; expanded concentration range, 10 μM KRas) | Hill coefficient of the titration curve ([1]; full inhibition curve, four-hour incubation) | rGTP hydrolyzed ([1]; ligand-only (no KRas) wells) | relative potency as inhibitor of KRas GTPase activity [1, 5] | Compound
1 | inhibitory effect | 20134 | 18768 | 17838 | 20725 | 21906 |  |  |  |  |  |  |  | CCC(C)[C@@H]1NC(=O)CNC(=O)[C@H](Cc2cnc[nH]2)NC(=O)[C@@H](N)Cc2cn(nn2)CCCC[C@@H](C(=O)NCCOCCOCCOCCOCCOCCC(=O)NCCNC(=O)CCCC[C@@H]2SC[C@@H]3NC(=O)N[C@@H]32)NC(=O)CNC(=O)[C@H](C(C)C)NC1=O (single isomer, unassigned) [Ligand L1a, HGIVG]
2 |  | 18391 | 16612 | 14966 | 20262 | 20045 | 2180 ± 2700 | 5.43 ± 1 | 6.55 |  |  |  |  | NC(=O)CC[C@@H]1NC(=O)[C@@H](N)Cc2cn(nn2)CCCC[C@@H](C(=O)NCCOCCOCCOCCOCCOCCC(=O)NCCNC(=O)CCCC[C@@H]2SC[C@@H]3NC(=O)N[C@@H]32)NC(=O)[C@H](Cc2ccc(O)cc2)NC(=O)[C@H](Cc2ccccc2)NC(=O)[C@H](CC(N)=O)NC(=O)[C@H](CC(=O)O)NC1=O (single isomer, unassigned) [Ligand L9a, QDNFY]
3 | inhibitory effect |  |  |  |  |  |  |  |  | above 20 μM | ~10 | Less than 5% | most potent | CC(C)[C@@H]1NC(=O)[C@@H]2CCCN2C(=O)[C@H](C(C)C)NC(=O)CNC(=O)[C@H](CCC(=O)O)NC(=O)[C@@H](N)Cc2cn(nn2)CCCCC(C(=O)NCCOCCOCCOCCOCCOCCC(=O)NCCNC(=O)CCCC[C@@H]2SC[C@@H]3NC(=O)N[C@@H]32)NC1=O (some centres unmarked) [Ligand L2, EGVPV] (H-[Pra]EGVPV[ξLys(N3)][PEG5]-{Ethylenediamine-Biotin}; triazole 1-7)
4 | inhibitory effect |  |  |  |  |  |  |  |  |  |  |  |  | C[C@@H](O)[C@@H]1NC(=O)[C@@H](N)Cc2cn(nn2)CCCC[C@@H](C(=O)NCCOCCOCCOCCOCCOCCC(=O)NCCNC(=O)CCCC[C@@H]2SC[C@@H]3NC(=O)N[C@@H]32)NC(=O)[C@H](Cc2ccc(O)cc2)NC(=O)[C@H](Cc2ccccc2)NC(=O)[C@H](CC(N)=O)NC(=O)[C@H](CC(=O)O)NC1=O [Ligand L8, TDNFY] (H-[Pra]TDNFY[Lys(N3)][PEG5]-{Ethylenediamine-Biotin}; triazole 1-7)
